Laboratory results reported in EP2948433B1, “ATGLISTATIN AS LIPASE INHIBITOR” (Technische Universität Graz, priority 2013, dated 2014).
Marks after values point to notes of the source that are not given here.

Tests used:
[1] = target: T1, pancreatic lipase (Sus scrofa, UniProt P00591); test: Pancreatic lipase activity, triolein substrate; assay type: biochemical, porcine; details: Fig. 2D
T1 construct: pancreatic lipase (from porcine pancreas, Sigma); purchased Sigma; host or cells: porcine pancreas
T1 sequence (P00591 1-450): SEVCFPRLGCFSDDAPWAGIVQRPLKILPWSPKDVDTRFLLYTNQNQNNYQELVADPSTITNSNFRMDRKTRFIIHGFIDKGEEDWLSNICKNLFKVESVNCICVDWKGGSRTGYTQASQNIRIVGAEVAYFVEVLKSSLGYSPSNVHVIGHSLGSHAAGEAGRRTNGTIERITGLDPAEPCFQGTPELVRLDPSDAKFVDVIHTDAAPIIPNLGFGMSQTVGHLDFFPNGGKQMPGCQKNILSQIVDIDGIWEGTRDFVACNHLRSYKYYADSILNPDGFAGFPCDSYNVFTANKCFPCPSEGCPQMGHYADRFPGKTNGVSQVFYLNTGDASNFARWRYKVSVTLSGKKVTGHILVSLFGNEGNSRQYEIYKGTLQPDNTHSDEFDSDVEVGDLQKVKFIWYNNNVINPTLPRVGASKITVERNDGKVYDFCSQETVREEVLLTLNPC
Method: • Figure 1. Structure of compounds 1 to 3 (reference) and compound 4 (atglistatin) and effect on ATGL activity. For determination of lipase activity, lysates of E. coli overexpressing recombinant strep-tagged ATGL and CGI-58 were incubated with a substrate containing radiolabeled [9,10-3H(N)]-triolein. Subsequently, FA were extracted and quantified by liquid scintillation counting. Lysates of cells expressing empty vector were set as blank. Inhibitors were solubilized in DMSO and added at the indicated concentrations. DMSO alone was used as negative control. (A) Structure and IC50 values of compounds 1-4. (B) Dose-dependent inhibition of ATGL in the presence of compound 3 and 4. […] (C) Lineweaver-Burk plots for kinetic analysis of ATGL inhibition. Experiments were performed at varying concentrations of substrate (0.05 - 3 mM) in presence and absence of compound 4 (Atglistatin). […] Lipase activity of ATGL, HSL, lipoprotein lipase, and pancreatic lipase was determined using triolein as substrate. MGL activity was detected in the presence of rac-(1,3)-monooleoylglycerol as substrate. […] The release of FA (A) and glycerol (B) in the media was determined using commercial kits. […] At the indicated timepoints blood was taken retroorbitally and plasma parameters were measured using commercial kits. […] 8 h after gavage blood was taken retroorbitally and plasma parameters were measured using commercial kits. […]

[2] = Inhibition of lipolysis in vivo, oral gavage in fasted mice, plasma parameters; parameters: species or system C57BI/6J mice
Method: • Figure 1. Structure of compounds 1 to 3 (reference) and compound 4 (atglistatin) and effect on ATGL activity. For determination of lipase activity, lysates of E. coli overexpressing recombinant strep-tagged ATGL and CGI-58 were incubated with a substrate containing radiolabeled [9,10-3H(N)]-triolein. Subsequently, FA were extracted and quantified by liquid scintillation counting. Lysates of cells expressing empty vector were set as blank. Inhibitors were solubilized in DMSO and added at the indicated concentrations. DMSO alone was used as negative control. (A) Structure and IC50 values of compounds 1-4. (B) Dose-dependent inhibition of ATGL in the presence of compound 3 and 4. […] (C) Lineweaver-Burk plots for kinetic analysis of ATGL inhibition. Experiments were performed at varying concentrations of substrate (0.05 - 3 mM) in presence and absence of compound 4 (Atglistatin). […] Data are presented as mean +/-S.D. of triplicate determinations. Data for compound 4 are representative for at least three independent experiments. • Figure 2. Selectivity of Atglistatin. Lipase activity of ATGL, HSL, lipoprotein lipase, and pancreatic lipase was determined using triolein as substrate. MGL activity was detected in the presence of rac-(1,3)-monooleoylglycerol as substrate. Inhibitors were solubilized in DMSO and added at the indicated concentrations. DMSO alone was used as negative control. (A) Dose-dependent inhibition of TG hydrolase activity in WAT lysates obtained from wild-type and ATGL-ko mice. (B) Inhibition of TG hydrolase activity in wild-type WAT lysates by Atglistatin (40 µM) and by the HSL inhibitor Hi 76-0079 (20 µM). (C) Effect of Atglistatin on murine MGL (purified from E. coli), and murine HSL (overexpressed in COS-7 lysates) activity. (D) Effect of Atglistatin on purified bovine LPL (Sigma) and pancreatic lipase (from porcine pancreas, Sigma). Data are presented as mean +/- S.D. of triplicate determinations and are representative for at least three independent experiments (p < 0.05 **, p < 0.01; ***, p < 0.001). • Figure 3 Inhibition of lipolysis in 3T3-L1 adipocytes and WAT organ cultures. (A,B) Differentiated 3T3 cells were preincubated with the indicated concentrations of Atglistatin. Thereafter, the medium was replaced by DMEM containing 2% BSA (fatty acid free), 10 µM forskolin, in the presence or absence of inhibitors. The release of FA (A) and glycerol (B) in the media was determined using commercial kits. Basal FA and glycerol release (not shown) was barely detectable under the applied conditions. Data are presented as mean +/- SD and are representative for 2 independent experiments. (C-F) Effect of Atglistatin on WAT basal (C, D) and forskolin-stimulated (E, F) lipolysis. Adipose tissue pieces (∼15 mg, n=5 for each concentration) of wild-type mice were cultured for 8 h in DMEM containing 2 % FA-free BSA and the indicated concentrations of Atglistatin. Subsequently, the medium was replaced by identical fresh medium and samples were collected after incubation for another hour in the presence or in the absence of 10 µM forskolin. Atglistatin was solubilized in DMSO and DMSO alone was used as negative control. Data are presented as mean +/- S.D. (*, p < 0.05 **, p < 0.01; ***, p < 0.001). • Figure 4 Inhibition of lipolysis in vivo. (A,B) Time dependent effect of Atglistatin on plasma free fatty acids (FFA) and glycerol levels of mice. C57BI6 mice were fasted overnight (ON) and received an oral gavage containing 100 µmol/kg Atglistatin dissolved in olive oil, or olive oil as control. At the indicated timepoints blood was taken retroorbitally and plasma parameters were measured using commercial kits. (C,D) Dose dependent effect of Atglistatin on plasma FFA and glycerol levels of mice. C57BI6 mice were fasted ON and received an oral gavage containing 0, 50, 100, or 200 µmol/kg Atglistatin dissolved in olive oil, or olive oil as control. 8 h after gavage blood was taken retroorbitally and plasma parameters were measured using commercial kits. […]

[3] = Tissue TG content after oral gavage in fasted mice; assay type: in vivo, C57BI6 mice
Method: Animals. Mice (C57BI/6J) were maintained on a regular light-dark cycle (14 hours light, 10 hours dark) and kept on a standard laboratory chow diet (4.5% wt/wt fat, Sniff GMBH Germany). Maintenance, handling, and tissue collection from mice has been approved by the Austrian Federal Ministry of Science and Research Education and by the ethics committee of the University of Graz. Atglistatin was orally administrated by gavage of 200 µl olive oil containing Atglistatin.
Determination of tissue TG content. For tissue collection mice were euthanized by cervical dislocation. Subsequently, tissues were excised and snap frozen. After homogenisation in buffer A without DTT, TG was measured using TG reagent (Thermo Electron Corp., Victoria, Australia).
Table 1. Inhibition of lipolysis in vivo. C57BI6 mice were fasted overnight and received an oral gavage containing 200 µmol/kg Atglistatin dissolved in olive oil, or olive oil as control. After 8 h blood was taken retroorbitally and mice were sacrificed. (A) Plasma parameters were measured using commercial kits. (B) Tissue triglyceride (TG) and protein levels were determined in whole tissue lysates and are presented as TG (nmol) per protein (mg). Data are presented as mean + S.D. (*, p < 0.05 **, p < 0.01; ***, p < 0.001). n = 7

[4] = plasma, 200 µmol/kg oral gavage, after 8 h, mean ± S.D., n = 7
[5] = up to, 50, 100 or 200 µmol/kg oral gavage, 8 h after gavage

In the case of `CN(C)C(=O)Nc1cccc(-c2ccc(N(C)C)cc2)c1` [Atglistatin, atglistatin], the “effect on pancreatic lipase” value [1] is reported as “only minor effects”, the “plasma levels for glycerol, time course” value ([2]; 100 µmol/kg oral gavage in olive oil, between 4 h and 8 h after gavage) is reported as “time dependent decrease” and the “plasma levels for FA, time course” value ([2]; 100 µmol/kg oral gavage in olive oil, between 4 h and 12 h after gavage) is reported as “time dependent decrease”. For the same compound, the FFA [2, 4] was 0.53 ± 0.05*** mmol/L, the Triglycerides [2, 4] was 0.33 ± 0.14** mmol/L and the “dose-dependent decrease in plasma FA levels” value [2, 5] was “up to 50%”. The “dose-dependent decrease in plasma glycerol levels” value [2, 5] was no more than 70%, the “Tissue triglyceride (TG), skeletal muscle” value ([3]; 200 µmol/kg oral gavage, after 8 h, mean ± S.D., n = 7) was 99 ± 13 nmol TG /mg protein and the “accumulation of TG in cardiac muscle and other tissues” value ([3]; mouse, in vivo) was “did not promote the accumulation of TG”.
